Experimental data published in patent US12448372B2, “Class of triaromatic compounds targeting bifunctional phosphorylation site of STAT3 and applications thereof” (SHANGHAI YUYAO BIOTECH LTD., priority 2019, dated 2025).
Like-named read-outs stand apart in the source and are kept apart here.

Assays:
STAT3 protein = STAT3 protein (Homo sapiens, UniProt P40763); experiment: Binding activity to STAT3 protein by microscale thermophoresis (MST); details: purified STAT3 recombinant protein
Text: (1) Determination of Binding Activities of Compounds to STAT3 Protein by Microscale Thermophoresis (MST) Method
(§1) The microscale thermophoresis (MST) technique is a simple, rapid, and accurate method for quantifying biomolecular interactions. It can measure the movement of molecules in a microscopic temperature gradient field, as well as detect changes of molecular hydration shell, charge and size. When the Nanotemper microscale thermophoresis instrument locally heated by a infrared laser, molecules will move in a directional manner, then the molecular distribution ratio in the temperature gradient field are analyzed by a fluorescence to detect whether a small molecule compound binds to a target protein. The experimental operation is as follows: firstly, compounds to be tested are diluted in a gradient using MST test buffer, total 16 concentrations being configured; subsequently, the purified STAT3 recombinant protein is labeled using the HIS tag labeling kit, and the final concentration of the labeled protein is 100-200 nM; the labeled STAT3 proteins are well mixed with the diluted compounds and incubated and protected from light for 30 minutes; finally the samples were loaded by capillary tube and detected on the instrument. The binding constants (K^D) of small molecules to STAT3 protein were analyzed by Mo. analysis software.

Capan-2 = experiment: Cell proliferation by MTS method, Capan-2; type: cell-based
Text: (§2) (2) Detection of Cell Proliferation by MTS Method
(§3) The MTS assay is a method for indirectly determining the number of living cells via colourimetric method. MTS is a newly synthesised tetrazole compound that reflects cell viability, which can be reduced by succinate dehydrogenase in the mitochondria of living cells to an orange-coloured formazan with an absorbance of the reduced product measured at 490 nm being in proportion to the number of living cells, thus reflecting the cell viability. This assay can be used to evaluate the effect of the compound on the proliferation of pancreatic cancer cells, thereby determining the inhibitory effect of the compound on the proliferation of pancreatic cancer cells and to calculate the IC^50. Each cells were inoculated uniformly into a 96-well plate at a density of 1-20×10^3 cells/well, 100 μL per well, and placed in a constant temperature incubator until the cells adhered to the wall. The control group was added with the corresponding medium and the experimental groups were given different concentrations of the compound prepared by the examples of the present invention, and the cells were taken out 24-96 h after administration for observing the cell state under a microscope. Under light-proof conditions, MTS was added and well mixed, the mixture was placed in a constant temperature incubator at 37° C., and the light absorption value were measured using an enzyme marker at 490 nm and the experiment was repeated for three times, IC50 was calculated with GraphPad5 Prism software.

MKN45 = experiment: Cell proliferation by MTS method, MKN45; type: cell-based; details: Homo sapiens, MKN-45; Table 1, MKN45; read-out: Tumour cell proliferative activity/IC50(nM) gastric Cancer MKN45
Text: as §2, §3

Huh7 = experiment: Cell proliferation by MTS method, Huh7; type: cell-based; details: Homo sapiens, Huh-7; Table 1, Huh7; read-out: Tumour cell proliferative activity/IC50(nM) Liver Cancer Huh7
Text: as §2, §3

HCC827 = experiment: Cell proliferation by MTS method, HCC827; type: cell-based; details: Homo sapiens; Table 1, HCC827; read-out: Tumour cell proliferative activity/IC50(nM) Lung Cancer HCC827
Text: as §2, §3

STAT3 SH2 domain = STAT3 SH2 domain (Homo sapiens, UniProt P40763); experiment: Microscale thermophoresis binding to STAT3 SH2 domain; details: MST, FIG. 5A; read-out: affinity for the STAT3 SH2 domain
STAT3 SH2 domain, sequence (P40763 580-670 limits assumed): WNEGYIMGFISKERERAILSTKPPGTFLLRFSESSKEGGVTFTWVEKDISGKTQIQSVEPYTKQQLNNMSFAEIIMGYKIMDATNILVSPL
Text: as §1
(1) Microscale Thermophoresis Experiment
The method is as described in Example 40.

[1] = dose of 25 mg/kg, cited from earlier work
[2] = Homo sapiens, Table 1, Capan-2, read-out: Tumour cell proliferative activity/IC50(nM) Pancreatic Cancer Capan-2

STAT3 protein, sequence (P40763 whole entry): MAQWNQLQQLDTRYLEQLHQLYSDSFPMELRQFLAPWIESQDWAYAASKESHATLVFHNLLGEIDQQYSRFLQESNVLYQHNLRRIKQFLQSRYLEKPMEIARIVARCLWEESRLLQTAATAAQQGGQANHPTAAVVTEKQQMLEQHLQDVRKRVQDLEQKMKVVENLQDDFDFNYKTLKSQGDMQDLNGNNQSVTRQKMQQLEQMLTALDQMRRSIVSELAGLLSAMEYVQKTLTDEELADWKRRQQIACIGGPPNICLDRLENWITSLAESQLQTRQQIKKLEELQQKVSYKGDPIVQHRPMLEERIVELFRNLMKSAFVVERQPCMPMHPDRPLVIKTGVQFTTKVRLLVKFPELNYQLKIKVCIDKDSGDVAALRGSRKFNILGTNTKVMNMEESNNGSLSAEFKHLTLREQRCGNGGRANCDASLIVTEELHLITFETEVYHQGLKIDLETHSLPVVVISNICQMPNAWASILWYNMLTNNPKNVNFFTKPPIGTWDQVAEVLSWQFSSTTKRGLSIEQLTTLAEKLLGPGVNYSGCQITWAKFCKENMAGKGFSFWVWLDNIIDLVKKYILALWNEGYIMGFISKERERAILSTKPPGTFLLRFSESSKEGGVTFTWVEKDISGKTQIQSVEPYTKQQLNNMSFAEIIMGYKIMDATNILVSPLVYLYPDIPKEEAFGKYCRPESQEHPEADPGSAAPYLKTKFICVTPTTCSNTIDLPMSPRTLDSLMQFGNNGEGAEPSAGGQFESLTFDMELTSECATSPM

SMILES	Kd (STAT3 protein) [nM]	IC50 (MKN45) [nM]	IC50 (Huh7) [nM]	IC50 (HCC827) [nM]	IC50 (Capan-2; [2]) [nM]	IC50 (Capan-2; Capan-2, FIG. 5B, read-out: IC50, inhibition of proliferation of pancreatic cancer cells) [nM]	Kd (STAT3 SH2 domain) [nM]	mortality in the mouse model ([1]; 25 mg/kg)	mortality in the mouse model ([1]; listed as IACS-101759, 25 mg/kg)
Cn1c(C(=O)N2CCN(Cc3ccccc3OCC(F)(F)F)CC2)cc2ccc(Oc3cnc(-c4nc(-c5ccc(C(F)(F)F)cc5)no4)cn3)cc21 [Example 33, (1-methyl-6-((5-(3-(4-(trifluoromethyl)phenyl)-1,2,4-oxadiazol-5-yl)pyrazin-2-yl)oxy)-1H-indol-2-yl)(4-(2-(2,2,2-trifluoroethoxy)benzyl)piperazin-1-yl)methanone]	< 100	< 1000	< 1000	< 1000	< 1000	–	–	–	–
COC(=O)CN1CCN(C(=O)c2cc3ccc(Oc4cnc(-c5nc(-c6ccc(C(F)(F)F)cc6)no5)cn4)cc3n2C)CC1 [Example 37, Methyl 2-(4-(1-methyl-6-((5-(3-(4-(trifluoromethyl)phenyl)-1,2,4-oxadiazol-5-yl)pyrazin-2-yl)oxy)-1H-indol-2-carbonyl)piperazin-1-yl)acetate]	< 100	< 1000	< 1000	< 1000	< 1000	–	–	–	–
Cn1c(C(=O)N2CCN(C(=O)CCl)CC2)cc2ccc(Oc3cnc(-c4nc(-c5ccc(C(F)(F)F)cc5)no4)cn3)cc21 [Example 38, 2-chloro-1-(4-(1-methyl-6-((5-(3-(4-(trifluoromethyl)phenyl)-1,2,4-oxadiazol-5-yl)pyrazin-2-yl)oxy)-1H-indol-2-carbonyl)piperazin-1-yl)ethanone]	< 100	< 1000	< 1000	< 1000	< 1000	–	–	–	–
Cn1c(C(=O)N2CCN(C(=O)c3ccc(C(F)(F)F)cc3)CC2)cc2ccc(Oc3cnc(-c4nc(-c5ccc(C(F)(F)F)cc5)no4)cn3)cc21 [Example 39]	< 100	< 1000	< 1000	< 1000	< 1000	–	–	–	–
Cc1nc(-c2nc(-c3ccc(OC(F)(F)F)cc3)no2)nn1Cc1cccc(N2CCC(S(C)(=O)=O)CC2)c1 [IACS-010759, reference compound]	–	–	–	–	–	2.7	2780	all mice in the administered group died	all mice died

Continued, in another order:

Kd (STAT3 protein) [nM]	IC50 (MKN45) [nM]	IC50 (Huh7) [nM]	IC50 (HCC827) [nM]	SMILES	IC50 (Capan-2; [2]) [nM]	IC50 (Capan-2; Capan-2, FIG. 5B, read-out: IC50, inhibition of proliferation of pancreatic cancer cells) [nM]	Kd (STAT3 SH2 domain) [nM]	mortality in the mouse model ([1]; 25 mg/kg)	mortality in the mouse model ([1]; listed as IACS-101759, 25 mg/kg)
< 100	< 1000	< 1000	< 1000	CN1CCN(C(=O)c2cc3ccc(Oc4cnc(-c5nc(-c6ccc(C(F)(F)F)cc6)no5)cn4)cc3n2C)CC1 [Example 34, (1-methyl-6-((5-(3-(4-(trifluoromethyl)phenyl)-1,2,4-oxadiazol-5-yl)pyrazin-2-yl)oxy)-1H-indol-2-yl)(4-methylpiperazin-1-yl)methanone]	< 1000	–	–	–	–
< 100	< 1000	< 1000	< 1000	CCN1CCN(C(=O)c2cc3ccc(Oc4cnc(-c5nc(-c6ccc(C(F)(F)F)cc6)no5)cn4)cc3n2C)CC1 [Example 35, (4-ethylpiperazin-1-yl)(1-methyl-6-((5-(3-(4-(trifluoromethyl)phenyl)-1,2,4-oxadiazol-5-yl)pyrazin-2-yl)oxy)-1H-indol-2-yl)methanone]	< 1000	–	–	–	–
< 100	< 1000	< 1000	< 1000	CCCN1CCN(C(=O)c2cc3ccc(Oc4cnc(-c5nc(-c6ccc(C(F)(F)F)cc6)no5)cn4)cc3n2C)CC1 [Example 36]	< 1000	–	–	–	–
